Source: patent US20220079916A1, “USE OF GERANYLFLAVONE A IN PREPARATION OF DRUG FOR PROMOTING HEALING OF WOUNDS” (HANYI BIO-TECHNOLOGY COMPANY LTD., priority 2019, published 2022)

How the values were obtained:
[1] = system: whole cortex wound of wild C57 adult male mice; assay: Experiment of skin wound healing (Example 2, wound without bacterial infection); assay type: in vivo, mice (C57BL/6); conditions: 10 mg/mouse mixed with 5 mg vaseline
Description: Wild C57 adult male mice (C57BL/6, purchased from Vital River) were taken and anesthetized, and then subjected to backside unhairing to establish a whole cortex wound with a 6 mm biopsy puncher. Attention should be paid to disinfection for preventing infection.
A normal control group: 5 mice, no administration.
A group administrated with vaseline: vaseline (vaseline for medical purpose, purchased from Tianjin Zhiyuan Chemical Reagent Co., Ltd., the same below), 5 mg vaseline/mouse, 5 mice.
A group administrated with A drug A: 10 mg/mouse, 10 mice (as a flavonoid control, and the drug A was soybean isoflavones).
A group administrated with a drug B: 10 mg/mouse, 10 mice (as a flavonoid control, and the drug B was quercetin).
A group administrated with cannflavin A: cannflavin A, 10 mg/mouse, 10 mice. The administration modes of the latter 4 groups were all application onto the wound, and the administration was conducted once a day. Because vaseline was a commonly used ointment base^[8], in the latter 3 groups, the drug A, the drug B or cannflavin A were respectively well mixed with 5 mg of vaseline and then administered.
Photos were taken to record a wound healing condition of mice on days 0, 4 and 7 of administration, and the healing degree of a wound area was calculated by the PhotoShop software with 1 cm^2 as a scale. […]

[2] = system: whole cortex wound inoculated with Staphylococcus aureus, mice with type II diabetes; assay: Healing of skin wound infected with Staphylococcus aureus (2), comparison with flavonoid controls (Example 4); assay type: in vivo, mice (C57BL/6); conditions: 10 mg/mouse mixed with 5 mg vaseline, once a day
Description: normal mice as control and mice with type II diabetes established according to the method of Example 1 were taken, anesthetized, and then subjected to backside unhairing to establish a whole cortex wound with a 6 mm biopsy puncher. The mice were inoculated with 1.5×10^6 CFU/ml of Staphylococcus aureus. […]
The experimental method was the same as that of Example 3, except that the grouping and administration were as follows:
A normal control group: no administration, 5 mice.
A type II diabetes control group administrated with vaseline: vaseline, 5 mg vaseline/mouse, 5 mice.
A type II diabetes group administrated with vaseline+a drug A: 10 mg/mouse, 10 mice (as a flavonoid control, and the drug A was soybean isoflavones).
A type II diabetes group administrated with vaseline+a drug B: 10 mg/mouse, 10 mice (as a flavonoid control, and the drug B was quercetin).
A type II diabetes group administrated with vaseline+cannflavin A: […], 10 mice.
The aforementioned 5 groups were all inoculated with Staphylococcus aureus according to the previous step (1).
The administration modes of the latter 4 groups were all application onto the wound, and the administration was conducted once a day. In the latter 3 groups, the drug A, the drug B or cannflavin A were respectively well mixed with 5 mg of vaseline as an ointment base and then administered.

SMILES: O=c1c(O)c(-c2ccc(O)c(O)c2)oc2cc(O)cc(O)c12 [drug B, quercetin, reference compound]
- time in which the wound basically healed ([1]; applied onto the wound once a day, normal mice, no infection): about 4 days
- promoting the healing degree of wounds without bacterial infection, compared among drugs, vaseline and control ([1]; once a day, days 0, 4 and 7): no significant difference
- help to wound healing [2]: could not help wound healing
